These results are taken from patent publication US20090054507A1, “CONTROL OF MALIGNANT CELLS BY KINASE INHIBITION” (CLEVELAND STATE UNIVERSITY, priority 2006, published 2009).

One test deals with MCF-7 cells. Description: Proliferation assay in vitro, MCF-7. Particulars: five days. Type of test: cell-based, human. The source says:
Viability (proliferation) assay, Trypan blue exclusion. Cells were counted using a Neubauer hemacytometer.

Another test relates to MCF-7 xenografts. Description: In vivo therapy of MCF-7 xenografts, tumor volume. Further details: species or system mice. From the text: (§1) Creation of the xenografts MCF-7, SW-480 and WM-164. Immunodeficient male and female athymic nude nu/nu mice were used, provided and housed by Dr. Lindner, DJ from Taussig Cancer Center, Cleveland Clinic and Case Western Reserve University. Mice were checked every day. Mice were housed in filtered air flow cabinets with autoclaved bedding at a density of 5 mice/cage. They were fed autoclaved Purina Lab Rodent Chow® 5010 and HCl-acidified distilled water ad libitum and were placed in rooms with controlled temperature, humidity and 12-hr light-dark cycles. Procedures involving animals and their care were conducted in conformity with the institutional guidelines that are in compliance with national and international laws and policies (EEC Council Directive 86/609, OJL 358, Dec. 1, 1987, and the National Institutes of Health Guide for the Care and Use of Laboratory, Animals, NIH Publication 85-23, 1985).
(§2) For engraftment, cells in cell culture media were injected. […] Cells were counted with a hemacytometer using Trypan blue (only live cells were counted). […]
In vivo therapy with DMAT of MCF-7 xenografts. […] Tumor diameters were measured using a caliper and tumor volume was calculated using the prolate-spheroid formula. […]

The test system of test [1] is SW-480 cells. Description: Annexin V apoptosis/necrosis assay, SW-480. The class given is cell-based, human. How it is done: (§3) Apoptosis Assays using Flow Cytometry with Annexin V-FITC and propidium iodide (PI). For induction of typical apoptosis, cells were grown in the presence of 1 μM staurosporine (Sigma-Aldrich) for 6 hours. The staurosporine treated cells were stained as follows: control 1 with PI, control 2 with Annexin V-FITC and control 3 both PI and Annexin V-FITC in order to have the brightest controls for compensation and proper collection of the flow cytometry data. Cell necrosis was induced by heat shock (65° C. for 30 minutes). The stained control, both PI and Annexin V-FITC labeled, was then used as the reference in establishing the level of apoptosis induced by the treatments. Data was collected on logarithmic modes, two-colors. Annexin V-FITC corresponds to FL1 H channel, and PI to FL3H or FL2H channels.
(§4) Annexin V-FITC and PI apoptosis assay staining protocol. Apoptosis Annexin V-FITC and PI kit from BD Biosciences, CA, USA, was used. 10^5-10^6 cells were stained with 50 μg/ml PI and with 0.5 μg/ml FITC-labeled Annexin V using the staining protocol provided by the supplier. Samples were then analyzed immediately by flow cytometry.

Test [2] has as its system SW-480 cells. Description: Anchorage independence in soft agar, SW-480. Type of test: cell-based, human. Particulars: DMAT 10 μM, one week.
The subject of the next test is SW-480 xenografts. Description: In vivo therapy of SW-480 xenografts, tumor volume. Set-up: species or system mice.
Description: as §1, §2
In vivo therapy with DMAT of SW-480 xenografts. […] Tumor diameters were measured using a caliper and tumor volume was calculated using the prolate-spheroid formula. […]

The subject of another test is WM-164 cells. Description: Annexin V apoptosis/necrosis assay, WM-164. The class given is cell-based, human. How it is done:
as §3, §4

The subject of a further test is tumors of U-87 cells. Description: Murine xenograft of U-87 cells, tumor volume. Type of test: in vivo, mice. As to conditions: DMAT at effective dosage levels (in DMSO) per animal per day, approximately 24 days. How it is done:
FIG. 96 illustrates the effect of administration of DMAT as compared to a control, i.e. DMSO, for a period of approximately 24 days. FIG. 96 is a graph of a murine xenograft treated with DMAT, compared to a control. Mice with tumors of U-87 cells were treated with DMAT at effective dosage levels (in DMSO) per animal per day. The daily animal weight was averaged at 32.5 g at the start of treatment. Tumors were measured daily and tumor volumes were calculated based upon a prolate spheroid model. FIG. 96 illustrates the significant benefits of treatment with DMAT (squares) as compared to the control (diamonds).

“Also recorded” adds a separate entry of the source.

Take `CN(C)c1nc2c(Br)c(Br)c(Br)c(Br)c2[nH]1` [DMAT, 2-dimethylamino-4,5,6,7-tetrabromo-1H-benzimidazole]: in the test with MCF-7 cells (10 μM DMAT), the cell counts result is “cell counts between the control and the MCF-7 cells treated with 20 μM”. In the test with MCF-7 cells (20 μM DMAT), the “cell counts / proliferation” value is on record as “lowest cell counts; also recorded: proliferation arrest”. Also, the tumor volume result with MCF-7 xenografts (DMAT 10 mg/kg (in DMSO) per day, 13 day period, control about 50 to about 1750 mm^3) is “remarkably stable size and nearly no increase”; in the test with SW-480 xenografts (DMAT 40 mg/kg (in DMSO) per day, thirteen days, control about 260 to about 1800 mm^3) it was “only a minor increase in tumor volume”. The “response of xenograft tumors to treatment (summary)” value is recorded as “tumor ablation” with MCF-7 xenografts (mouse, in vivo) and “significant reduction in tumor volume” in the test on SW-480 xenografts (small tumors remained at the end of the treatment). Moreover, the “level of apoptotic cells” value with SW-480 cells [1] (10 μM DMAT, 24 hours, control 1.9%) was determined as 17.5%; in the test with SW-480 cells [1] (20 μM DMAT), 27.6%; with WM-164 cells (10 μM DMAT, 24 hours, control 16.9%), 36.8%. Further, the “level of necrotic cells” value in the test with SW-480 cells [1] (10 μM DMAT, 24 hours, control 3.5%) is listed as 1.9%; in the test with SW-480 cells [1] (20 μM DMAT), 2.4%; in the test on WM-164 cells (10 μM DMAT, 24 hours, control 4.8%), 2.0%; with WM-164 cells (20 μM DMAT), 4.1%. The “colonies in soft agar” value with SW-480 cells [2] was “much smaller and fewer colonies”. Besides, the “level of apoptic cells” value with WM-164 cells (20 μM DMAT) came to 26.8%. Besides, the “tumor growth vs untreated control” value in the test with tumors of U-87 cells is given as “significantly less cancerous growth”.
